Patent publication US5675003A, “3-ammoniopropenyl cephalosporin compounds as antibacterial agents” (Korea Institute of Science and Technology, priority 1995, dated 1997)
≈ marks a conversion by molar mass, not a printed value.

Tests used:
[1] = system: anti-pseudomonal; details: in words, prior art; cited from earlier work
[2] = system: staphylococci; details: in words, prior art; cited from earlier work
[3] = system: Streptococcus pyogenes 308 A; test: MIC, in vitro agar dilution method; format: cell-based; details: Streptococcus pyogenes, 308A
Method: (§1) The MICs of the new cephalosporins of the present invention against Gram-positive and Gram-negative bacteria were determined by an in vitro agar dilution method. For comparisons, the MIC values of ceftazidime are also listed.
(§2) In vitro antimicrobial activity of the cephalosporins (l) (MIC:
S.p.1, Streptococcus pyogenes 308 A;

[4] = system: Streptococcus faecium MD; test: MIC, in vitro agar dilution method; format: cell-based; details: Enterococcus faecium
Method: as §1, §2
S.f., Streptococcus faecium MD;

[5] = system: Pseudomonas eruginosa 1771; test: MIC, in vitro agar dilution method; format: cell-based; details: P.a.3, Pseudomonas eruginosa 1771
Method: as §1, §2
P.a.3, Pseudomonas eruginosa 1771;

[6] = system: Staphylococcus aureus 503; test: MIC, in vitro agar dilution method; format: cell-based; details: Staphylococcus aureus, 503
Method: as §1, §2
S.a.3, Staphylococcus aureus 503;

[7] = system: Escherichia coli TEM; test: MIC, in vitro agar dilution method; format: cell-based; details: E.c.3, Escherichia coli TEM
Method: as §1, §2
E.c.3, Escherichia coli TEM;

[8] = system: Staphlococcus aureus SG 511; test: MIC, in vitro agar dilution method; format: cell-based
Method: as §1, §2
S.a.1, Staphlococcus aureus SG 511;

[9] = system: Enterobacter cloacae 1321 E; test: MIC, in vitro agar dilution method; format: cell-based; details: Enterobacter cloacae, 1321E
Method: as §1, §2
En.c.2, Enterobacter cloacae 1321 E.

[10] = system: Escherichia coli O55; test: MIC, in vitro agar dilution method; format: cell-based; details: E.c.1, Escherichia coli O55
Method: as §1, §2
E.c.1, Escherichia coli O55;

[11] = system: E.c.5; test: MIC, in vitro agar dilution method; format: cell-based; details: Escherichia coli, E.c.5 (strain not defined)
Method: as §1

[12] = system: Pseudomonas aeruginosa 1592 E; test: MIC, in vitro agar dilution method; format: cell-based; details: Pseudomonas aeruginosa, 1592E
Method: as §1, §2
P.a.2, Pseudomonas aeruginosa 1592 E;

[13] = system: Klebsiella oxytoca 1082 E; test: MIC, in vitro agar dilution method; format: cell-based; details: Klebsiella oxytoca, 1082E
Method: as §1, §2
K.o., Klebsiella oxytoca 1082 E;

[14] = system: Pseudomonas aeruginosa 1771 M; test: MIC, in vitro agar dilution method; format: cell-based; details: Pseudomonas aeruginosa, 1771M
Method: as §1, §2
P.a.4, Pseudomonas aeruginosa 1771 M;

[15] = system: Streptococcus pyogenes A 77; test: MIC, in vitro agar dilution method; format: cell-based; details: Streptococcus pyogenes, A77
Method: as §1, §2
S.p.2, Streptococcus pyogenes A 77;

[16] = system: Enterobacter cloacae P99; details: in words, prior art; cited from earlier work
[17] = system: Staphylococcus aureus 285; test: MIC, in vitro agar dilution method; format: cell-based; details: Staphylococcus aureus, 285
Method: as §1, §2
E.c. TEM, S.a. 2, Staphylococcus aureus 285;

[18] = system: Escherichia coli 1507 E; test: MIC, in vitro agar dilution method; format: cell-based; details: E.c.4, Escherichia coli 1507 E
Method: as §1, §2
E.c.4, Escherichia coli 1507 E;

[19] = system: Pseudomonas aeruginosa 9027; test: MIC, in vitro agar dilution method; format: cell-based; details: Pseudomonas aeruginosa, 9027
Method: as §1, §2
P.a.1, Pseudomonas aeruginosa 9027;

[20] = system: Enterobacter cloacae P 99; test: MIC, in vitro agar dilution method; format: cell-based
Method: as §1, §2
En.c.1, Enterobacter cloacae P 99;

[21] = system: Klebsiella aerogenes 1552 E; test: MIC, in vitro agar dilution method; format: cell-based; details: Klebsiella aerogenes, 1552E
Method: as §1, §2
K.a., Klebsiella aerogenes 1552 E;

[22] = system: Escherichia coli DC0; test: MIC, in vitro agar dilution method; format: cell-based; details: E.c.2, Escherichia coli DC0
Method: as §1, §2
E.c.2, Escherichia coli DC0;

[23] = system: Salmonella typhimurium; test: MIC, in vitro agar dilution method; format: cell-based; details: Salmonella enterica, TYPHIMURIUM
Method: as §1, §2
S.t., Salmonella typhimurium;

In the case of `CO/N=C(\C(=O)N[C@@H]1C(=O)N2C(C(=O)[O-])=C(C[N+]3(C)CCCC3)CS[C@H]12)c1csc(N)n1` [Cefepime, cefepime], the anti-pseudomonal activity [1] is listed as “high anti-pseudomonal activity” and the activity against staphylococci [2] is listed as “improved anti-staphylococcaI activity”.

In the case of `CC(C)(O/N=C(\C(=O)N[C@@H]1C(=O)N2C(C(=O)[O-])=C(C[n+]3ccccc3)CS[C@H]12)c1csc(N)n1)C(=O)O` [Ceftazidime, ceftazidime, reference compound], the MIC [3] is given as 0.098 µg/mL (≈ 0.179 µM), the anti-pseudomonal activity [1] is given as “potent anti-pseudomonal activity” and the MIC [4] is given as 100 µg/mL (≈ 183 µM). The MIC [5] was 0.39 µg/mL (≈ 0.714 µM), the MIC [6] was 3.13 µg/mL (≈ 5.73 µM) and the MIC [7] was 0.098 µg/mL (≈ 0.179 µM). For the same compound, the MIC [8] was 12.5 µg/mL (≈ 22.9 µM), the MIC [9] was 0.025 µg/mL (≈ 0.0457 µM) and the MIC [10] was 0.098 µg/mL (≈ 0.179 µM). The MIC [11] was 0.2 µg/mL (≈ 0.366 µM), the MIC [12] was 0.78 µg/mL (≈ 1.43 µM) and the MIC [13] was 0.39 µg/mL (≈ 0.714 µM). For the same compound, the MIC [14] was 0.098 µg/mL (≈ 0.179 µM), the MIC [15] was 0.049 µg/mL (≈ 0.0896 µM) and the “activity against Enterobacter cloacae P99” value [16] was “less active against staphylococci and Enterobacter cloacae P99”. For the same compound, the MIC [17] was 12.5 µg/mL (≈ 22.9 µM), the MIC [18] was 0.2 µg/mL (≈ 0.366 µM) and the MIC [19] was 3.13 µg/mL (≈ 5.73 µM). For the same compound, the MIC ([20]; Enterobacter cloacae, P99) was 100 µg/mL (≈ 183 µM), the “activity against Enterobacter cloacae P99” value ([20]; in words) was “resistant to ceftazidime” and the activity against staphylococci [2] was “less active against staphylococci”. For the same compound, the MIC [21] was 0.098 µg/mL (≈ 0.179 µM), the MIC [22] was 0.098 µg/mL (≈ 0.179 µM) and the MIC [23] was 0.2 µg/mL (≈ 0.366 µM).
